Results: patent US9539221B2, “Method of treating airway diseases with β-adrenergic inverse agonists” (EGB ADVISORS, LLC, priority 2003, dated 2017)
Entries after “also recorded” stand apart in the source; their conditions may differ. Read-outs that look alike come from different tables or passages of the source.

Columns and labels:
asthmatic mice [1] = experiment: Airway resistance (Raw) response to methacholine provocation in murine model of asthma (forced oscillation); format: in vivo, Balb/cJ mice
Procedure: Balb/cJ mice aged 6 weeks (Jackson Animal Laboratory, Bar Harbor, Me.) were housed under specific pathogen-free conditions and fed a chicken ovalbumin-free diet. The Animal Research Ethics Boards of both the University of Houston and the Baylor College of Medicine approved all experiments reported here. […] Mice were sensitized with subcutaneous injection of 25 μg of ovalbumin adsorbed to aluminum hydroxide on protocol days 2, 9, and 16. Subsequently, mice were given 50 μL of saline solution containing 25 μg of ovalbumin intranasally, on a daily basis, from protocol days 23 through 27. A group of ovalbumin-sensitized saline-challenged mice serves as controls for systemic sensitization and respiratory challenges with ovalbumin. Prior to intranasal administrations, mice were sedated with halothane vapor.
To examine the effects of duration of β-adrenergic ligand therapy on the phenotype of the murine model of asthma, the experimental drugs were administered either acutely or chronically to different groups of asthmatic mice.
Asthmatic mice on acute therapy were given a single intravenous bolus infusion of either β-adrenergic drug or normal saline on protocol day 28, 15 minutes before airway responsiveness to methacholine was determined. […] Asthmatic mice on chronic therapy were treated with the β-adrenergic drug during protocol days 1 to 28. […] These concentrations were chosen based on those producing therapeutic effects in mice in previously published studies. The non-asthmatic mice were fed normal chow.
On protocol day 28, mice were anesthetized, tracheotomized, and connected to a computer-controlled small animal ventilator (Flexivent, Scientific Respiratory Equipment, Inc., Montreal, Canada). Airway resistance (Raw) was measured using the forced oscillation technique. The cellular composition of bronchoalveolar lavage fluid (BALF) was also determined.
To induce airway constriction, a solution containing 150 μg/mL of acetyl-α-methylcholine chloride (methacholine) (Sigma Chemical, St. Louis, Mo.) was infused intravenously at constant rates using a syringe infusion pump (Raze Scientific Instruments, Stanford, Conn.). […] Each methacholine dose was administered for 3 to 5 minutes, during which data were sampled at 1-minute intervals and then averaged.
The complex input impedance of the respiratory system was computed and the value of the real part of respiratory system impedance at 19.75 Hz was taken to reflect the magnitude of airway resistance (Raw). To examine the degree of airway responsiveness of each animal, the values for Raw as a function of methacholine doses were plotted. The largest value for Raw achieved in response to methacholine stimulation was referred to as Rawpeak. For mice that achieved a plateau in the methacholine dose-Raw response curve, the ED50 was calculated by linear interpolation using the GraphPad Prism4 (GraphPad Software, Inc.). […] The Bonferroni test was used to examine the statistical differences between experimental groups. The effects of acute drug treatments on baseline respiratory system mechanics were assessed using a two-tailed paired t-test. A value of P<0.05 was considered significant.
For these experiments, salbutamol was used for chronic administration at 0.5 mg/kg/day with a minipump and for acute administration at 0.15 mg/kg by i.v. bolus 15 minutes prior to challenge. Alprenolol was used at a high dose of 7200 ppm in chow or at a low dose of 720 ppm in chow. Carvedilol was used at a high dose of 2400 ppm in chow or at a low dose of 720 ppm in chow.

β2-adrenergic receptor [2] = target: β2-adrenergic receptor (Mus musculus, UniProt P18762); experiment: β-adrenergic receptor density in lung membranes of treated asthmatic mice by ICYP radioligand binding; format: in vivo
Procedure: (§1) β2-adrenergic receptor numbers were measured in asthmatic mice as follows. […] Mice were sacrificed and lung membranes were isolated as follows. Frozen lung tissue was homogenized in an ice-cold buffer containing 0.32 M sucrose and 25 mM Tris (pH 7.4) using a polytron (Pro 200, Pro Scientific, Inc.). The homogenate was centrifuged at 1000×g for 10 min at 4° C. The resulting supernatant was centrifuged at 40,000×g for 20 min at 4° C. The pellet was suspended in an ice-cold 25 mM Tris-HCl buffer (pH 7.4) and centrifuged at 40,000×g for 20 min at 4° C. The final pellet was suspended in 200 μL of 25 mM Tris-HCl (pH 7.4); membrane protein concentration was determined by BCA protein assay kit. […] The incubation was done at 37° C. for 2 h and terminated by rapid vacuum filtration through glass fiber filters. The filters were washed three times with 250 μL of cold wash buffer (25 mM Tris-HCl, pH 7.4) and the radioactivity determined in a counter. […] Receptor densities are expressed as femtomoles of sites per milligram of protein. Bmax is determined by nonlinear regression of the saturation binding curves.

β2-adrenergic receptor [3] = experiment: as above; format: in vivo; details: 2 days of administration
Procedure: as §1

β2-adrenergic receptor [4] = experiment: Immunohistochemistry of β2-adrenergic receptor levels in lung sections; format: in vivo, mice; details: chronic treatment versus untreated animals; epifluorescent microscopy
Procedure: The mice were sacrificed and the lungs excised. […] Lungs were embedded in OCT and 12-μm sections cut with a Tissue-Tek II cryostat. […] After 3 washes in PBS, the slides were blocked with 5% milk in PBS for 1 h, and then incubated overnight with anti-β2-adrenergic receptor antibody (1:200, Santa Cruz Biotechnology) in blocking solution. Slides were washed in PBS and incubated with secondary antibody (1:200, Cy3 goat anti-rabbit, 16 h at 4° C.). […] After washing with PBS, coverslips were mounted and viewed by epifluorescent microscopy.

[5] = system: sensitized and allergen-challenged mice; experiment: Acute nadolol with aminophylline, methacholine-induced bronchoconstriction; format: in vivo; details: nadolol 0.72 mg/kg i.p. 15 minutes prior to methacholine challenge
Procedure: Mice were sensitized to the allergen ovalbumin as described in Example 1. […] At time point 1 (time=−10 min) baseline airway resistance of the mice was determined. At time point 2 (time=−5 min) methacholine was infused into mice to reach their EC70.

Phospholipase C (PLC-β1) = experiment: Ratio of phospholipase C to actin by immunoblotting in cultured tracheal smooth muscle cells of treated mice; format: cell-based; details: asthmatic mice, chronic nadolol high dose treatment
Description: Cultured tracheal smooth muscle cells were obtained from mice exposed to the following treatments: NS/NC=nonasthmatic, non-challenged mice; S/C=asthmatic mice; Sal.Ac=asthmatic mice, acute salbutamol treatment; Sal.Ch=asthmatic mice, chronic salbutamol treatment; Nad.Ac=asthmatic mice, acute nadolol high dose treatment; and Nad.Ch=asthmatic mice, chronic nadolol high dose treatment.
After airway function experiments, the trachea were surgically removed from anesthetized mice that had been treated with drugs or vehicle. The trachea was minced and the cells plated and grown in culture. The smooth muscle cells grow faster and take over the culture dish. The cells were grown in medium which contained the drugs used in the treatment or vehicle controls. Phospholipase C (PLC-β1) was determined by immunoblotting with an antibody specific for the enzyme. Actin was used as a loading control and the amount of PLC-β1 was expressed as a ratio to actin.
The phospholipase C protein level was measured in these cultured cells and compared with the level of the structural protein actin as a baseline. The enzyme phospholipase C plays a key role in the pathway leading to asthmatic symptoms, as it cleaves a phosphodiester bond in membrane phospholipids, resulting in the formation of a 1,2-diglyceride. […]

asthmatic mice [6] = details: same mouse asthma model, Callaerts-Vegh et al. 2004, cited from earlier work

Sequence of β2-adrenergic receptor (Mus musculus, UniProt P18762) (P18762 whole entry): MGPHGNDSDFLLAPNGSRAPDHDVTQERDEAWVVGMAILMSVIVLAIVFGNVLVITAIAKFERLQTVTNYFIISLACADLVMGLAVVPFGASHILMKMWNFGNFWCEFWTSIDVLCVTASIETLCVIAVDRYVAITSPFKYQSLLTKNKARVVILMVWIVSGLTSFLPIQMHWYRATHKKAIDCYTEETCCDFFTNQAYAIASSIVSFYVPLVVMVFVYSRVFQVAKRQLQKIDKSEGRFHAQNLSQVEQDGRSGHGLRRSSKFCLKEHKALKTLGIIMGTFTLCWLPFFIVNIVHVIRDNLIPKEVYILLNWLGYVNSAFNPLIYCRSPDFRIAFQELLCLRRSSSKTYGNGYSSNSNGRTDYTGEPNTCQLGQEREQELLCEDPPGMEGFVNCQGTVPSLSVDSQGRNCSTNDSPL

Q: Which “airway resistance (Raw)” value (asthmatic mice [1]; 1 ppm in chow) does the source give for `CC(C)(C)NCC(O)COc1cccc2c1CC(O)C(O)C2` (centres unmarked) [Nadolol, nadolol] here?
A: The value was “identical to the untreated mice”.

Q: And the “airway responsiveness to methacholine provocation (airway resistance, Raw)” value (asthmatic mice [1]; asthmatic mice, chronic: 28 days (chow; salbutamol by osmotic minipump))?
A: The value was “produced a decrease in airway responsiveness, which was more pronounced than that caused by carvedilol treatment; also recorded: reduced the responsiveness of asthmatic mice to methacholine provocation”.

Q: And the “protection from airway hyperresponsiveness” value (asthmatic mice [1]; chronic administration, high and low dose in chow (Example 6))?
A: The value was “providing protection from airway hyperresponsiveness”.

Q: What about the “Bmax (β-adrenergic receptor density)” value (β2-adrenergic receptor [2]; 15 Minutes drug treatment, lung membranes of asthmatic mice, mean±SEM) of the same molecule?
A: The value was 181.9 ± 48.28 femtomoles of sites per milligram of protein.

Q: What about the “βmax (β-adrenergic receptor density)” value (β2-adrenergic receptor [2]; 28 Days drug treatment, lung membranes of asthmatic mice, mean±SEM) of the same molecule?
A: Its value is 785.5 ± 154.8 femtomoles of sites per milligram of protein.

Q: And the “Increased β2AR density” value (β2-adrenergic receptor [2]; 28 days of administration)?
A: Its value is “showed an increase in receptor density”.

Q: What about the “increase of the level of β2-adrenergic receptors over the non-treated mice” value (β2-adrenergic receptor [2]; chronic administration, versus untreated methacholine-challenged asthmatic mice) of the same molecule?
A: Its value is “nearly eightfold increase”.

Q: What about the “Increased β2AR density” value (β2-adrenergic receptor [3]) of the same molecule?
A: Its value is “yes”.

Q: What about the “Increased β2AR density” value (β2-adrenergic receptor [3]; listed as nadolol) of the same molecule?
A: Its value is “showed an increase in receptor density”.

Q: What about the “labeling with anti-β2-adrenergic receptor antibodies in lungs” value (β2-adrenergic receptor [4]) of the same molecule?
A: The value was “considerably more intense; also recorded: increase in β-adrenergic receptor density”.

Q: What about the baseline airway resistance [5] of the same molecule?
A: The baseline airway resistance was “same baseline airway resistance as non-drug treated sensitized and allergen-challenged mice”.

Q: What about the “ratio of phospholipase C to actin” value (Phospholipase C (PLC-β1)) of the same molecule?
A: Its value is “significantly decreases the activity of phospholipase C”.

Q: What about the airway hyperresponsiveness (asthmatic mice [6]; administered acutely) of the same molecule?
A: The airway hyperresponsiveness was “worsens airway hyperresponsiveness”.

Q: What about the airway hyperresponsiveness (asthmatic mice [6]; administered chronically) of the same molecule?
A: The airway hyperresponsiveness was “prevents airway hyperresponsiveness”.
